According to patent US4520031A, “Method for reducing toxic effects of methyl-glyoxal bis-guanylhydrazone” (priority 1982, dated 1985):

Experiment: Solubility of MGBG salts
Format: physicochemical
Text: It is necessary to administer MGBG in a salt form to assure solubility of drug in the administration of fluid such as 5% (w/v) dextrose in water. […] Available MGBG-salt complexes include but are not limited to the dihydrochloride (NSC-32946) and the diacetate (NSC-30689).

## CC(C=NNC(=N)N)=NNC(=N)N
  solubility relative to dihydrochloride or diacetate salts: not as soluble as the dihydrochloride or diacetate salts
